Key:
[1] = test system: C3H murine mammary carcinoma; experiment: anti-vascular effects by combined LDF and NIRS measurements in mice with tumor transplants; format: in vivo; details: for LDF: difference between post- and pre-treatment as percent of pre-treatment value; for LDF / NIRS* / pO2 after treatment % < 5 mm Hg: median, N = 3; for LDF / NIRS* / pO2 after treatment median / pO2 after treatment % < 5 mm Hg: i.p.: FAA 150, CA4B 250, DMX-AA 20, HDZ 5 mg/kg; for NIRS*: reflectance (1/absorbance), increase = decrease in hemoglobin concentration, post- minus pre-treatment as percent of pre-treatment; for pO2 after treatment median: tumor pO2, N = 3; for pO2 after treatment % < 5 mm Hg: tumor pO2 values below 5 mm Hg; for tumor blood perfusion estimated by LDF / hemoglobin concentration: in words; for hemoglobin concentration: from NIRS
Protocol: Anti-vascular effects on C3H murine mammary carcinoma were determined by combined LDF and NIRS measurements, in mice with tumor transplants using the apparatus shown in FIG. 9.
The three agents DMX-AA, FAA and CA4B are antivascular agents, which by various mechanisms cause collapse of tumor vasculature and consequently a decrease in tumor blood flow and oxygenation. Hydralazine (HDZ) is a well known anti-hypertensive agent that causes peripheral vasodilatation, i.e. a drop in vascular flow resistance leading to an acute decrease in tumor perfusion (a.k.a. the “steal effect”), because of the lack of autoregulation of tumor vessels. Numbers in the table represent differences between post-and pre-treatment measurements expressed as percent of the pre-treatment value. Number of experiments per drug=3.

angiogenic response = angiogenic response to bFGF slow release pellet implanted under the skin, LDF and NIRS recordings; format: in vivo, mouse; details: pellet with 100 micrograms bFGF vs placebo pellets, p<0.05 vs placebo, p<0.001 vs controls
Protocol: (§1) The apparatus as shown on FIG. 9 was tested in a mouse model with a controlled angiogenic response induced by local application of an angiogenic agent, basic fibroblast growth factor (bFGF). Parallel experiments were performed with identical setup in order to correlate the sensitivity of near infrared spectroscopy (NIRS) compared to laser doppler flowmetry (LDF) for estimation of angiogenic and anti-angiogenic responses.
(§2) A slow release pellet (Innovative Res.) containing 100 micrograms of bFGF released at a constant rate over 10 days was implanted under the skin at three different locations in the mouse. The angiogenic response to the active substance was evaluated in comparison with placebo pellets. […] Median values and interquartile range is shown.

[2] = test system: bFGF induced angiogenic response; experiment: anti-angiogenic activity in bFGF stimulated animals, LDF and NIRS recordings; format: in vivo, mouse
Protocol: as §1, §2
The ability to detect anti-angiogenic properties of therapeutic agents in these preparations was tested in the same technical settings by comparing treated versus untreated animals.
FIGS. 3A and 3B show the anti-angiogenic activity after treatment with TNP-470 (7 mg/kg q.d.x7, n=13). […] LDF recordings were performed on day 6, whereas NIRS recordings were performed on day 7 after implantation. Median values and interquartile range is shown.

U87 and MLL tumor lines = experiment: tumor growth, NIRS recordings and Chalkley counts during continuous anti-angiogenic treatment; format: in vivo, nude mice
Excerpt: The relationship between non-invasive measures of tumor hemoglobin concentration by NIRS and estimates of vessel density by Chalkley counts was examined in seven tumor lines (gliomas: U87, U118, U373; Small Cell Lung Cancer (SCLC): 54A, 54B, DMS79; rat prostate cancer: MLL) on the hind leg of nude mice. Chalkley counts were obtained from CD31 immunostained cryosections. The NIRS absorbance increased with the tumor size until a tumor line specific plateau was reached from tumor sizes of 100-150 mm^3.
We also evaluated the correlation between tumor size and NIRS recordings during untreated growth for all seven tumor lines, and during continuous anti-angiogenic treatment with TNP-470 for two tumor lines, U87 and MLL.

[3] = treated vs untreated tumors of similar size, U87 and MLL

Compound | LDF [1] [%] | NIRS* [1] | pO2 after treatment median [1] | pO2 after treatment % < 5 mm Hg [1] [%] | tumor blood perfusion estimated by LDF [1] | hemoglobin concentration [1] | also measured
NNc1nncc2ccccc12 [HDZ, Hydralazine] | −93 | +36% | 1.9 | 85 | – | – | –
basic fibroblast growth factor [bFGF] | – | – | – | – | – | – | LDF recordings (angiogenic response; day 6 after implantation): significantly higher than placebo; NIRS recordings (angiogenic response; day 7 after implantation): significantly higher than placebo
CO[C@@H]1[C@H](OC(=O)NC(=O)CCl)CC[C@]2(CO2)[C@H]1[C@@]1(C)O[C@@H]1CC=C(C)C [TNP-470] | – | – | – | – | – | – | LDF recordings ([2]; compared to untreated bFGF stimulated animals, day 6, TNP-470 7 mg/kg q.d.x7 (p<0.05), dexamethasone 10 mg/kg q.d.x7 (p<0.001)): significantly lower; NIRS recordings ([2]; compared to untreated bFGF stimulated animals, day 7, TNP-470 7 mg/kg q.d.x7 (p<0.05), dexamethasone 10 mg/kg q.d.x7 (p<0.001)): significantly lower; anti-angiogenic activity ([2]; treated versus untreated animals): Significant anti-angiogenic activity; onset of tumor growth and the growth rate (U87 and MLL tumor lines; continuous treatment, U87 and MLL tumors): significantly retarded; Chalkley counts (U87 and MLL tumor lines; [3]): significantly lower; final NIRS recordings (U87 and MLL tumor lines; [3]): significantly lower
O=C(O)Cc1cccc2c(=O)cc(-c3ccccc3)oc12 [FAA] | −34 | +6% | 1.5 | 69 | decrease in perfusion | unchanged hemoglobin concentration | –
Cc1ccc2c(=O)c3cccc(CC(=O)O)c3oc2c1C [DMX-AA] | −74 | +1% | 2.8 | 66 | decrease in perfusion | unchanged hemoglobin concentration | –
